SMILES strings stand for the structures.

Sequence of human σ2 receptor (TMEM97) (Q5BJF2 whole entry): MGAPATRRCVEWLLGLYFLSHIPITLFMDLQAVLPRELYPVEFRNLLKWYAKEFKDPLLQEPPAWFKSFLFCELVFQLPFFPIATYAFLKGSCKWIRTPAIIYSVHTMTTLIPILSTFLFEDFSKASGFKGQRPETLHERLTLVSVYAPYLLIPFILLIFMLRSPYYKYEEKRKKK

The assay has as its target human σ2 receptor (TMEM97) (Homo sapiens, UniProt Q5BJF2). The assay is described as follows: biochemical. Type of assay: Expi293 membranes. Conditions: read-out: % of control remaining.
Regarding `COC(=O)[C@H](c1cccc(Cl)c1Cl)N1CCC[C@H](N2CCCC2)C1` [ZINC000611661177], the remaining activity at 1 µM amounted to 19.1%. In the case of `CC[C@@]1(NCC(=O)Nc2ccc(C)cc2Br)CCOC1` [ZINC000683045155], the remaining activity at 1 µM was 108%. To `O=C(NCCN1CCNC1=O)C(=O)NC[C@H]1CCc2ccccc21` [ZINC001119470858] belongs 107%; to `CCc1noc(C)c1C(=O)NC1CN(C(=O)[C@H]2CCCCN2C)C1` [ZINC000991393621], 116%. For `CC(C)CN1CCC(NC(=O)NNC(=O)C(=O)NC2CC2)CC1` [ZINC000045463977], the remaining activity at 1 µM is 107%. On to `O=C(OC[C@@H]1CCN1Cc1ccccc1)c1nccc2occc12` [ZINC001525937517], for which the remaining activity at 1 µM came out at 117%. `COCC1(C(=O)N2CCC[C@@H](N(C)CC[C@H](C)F)C2)CC1` [ZINC001420054689]: the remaining activity at 1 µM worked out at 78.5%. As to `N#CC1(c2ccccn2)CCN([C@@H]2Cc3ccccc3[C@@H]2O)CC1` [ZINC000369205980], the remaining activity at 1 µM was determined as 112%. To `C[C@H](C(=O)Nc1ccc(F)cc1Cl)N1CC[C@H](N2CCCC2)C1` [ZINC000533411740] belongs 79.7%.

As to `COc1ccc(Oc2ccc([N+](=O)[O-])cc2C(=O)N(C)C[C@H]2CCCN2C)cc1` [ZINC000421699823], the remaining activity at 1 µM was 96.4%.

As for `CN1C(=O)[C@H]2CN(C(=O)C(=O)NC3CCC(F)(F)CC3)C[C@H]2C1=O` [ZINC001261948364], the remaining activity at 1 µM came out at 90.8%.

In the case of `Fc1cccc(Cl)c1CNC1CCC2(CCCO2)CC1` (centres unmarked) [ZINC000584028046], the remaining activity at 1 µM is 18.4%. To `O=C([C@@H]1CCCN(CC(F)F)C1)N1CC[C@]2(CCN(CCO)C2)C1` [ZINC001041605786] belongs 110%. With `C[C@H](c1ccccc1Br)N(C)C(=O)C[C@@H]1CCCN1` [ZINC000423867812], the remaining activity at 1 µM amounted to 95.6%. `CO[C@@H](CNC(=O)C(=O)N1C[C@@H]2C(=O)N(C)C(=O)[C@@H]2C1)CC(C)C` [ZINC001119173847]: the remaining activity at 1 µM was found to be 95.8%. With `COCCN1CCC(NC(=O)C(=O)N[C@H]2CCOC(C)(C)C2)CC1` [ZINC000343016571], the remaining activity at 1 µM was found to be 118%. In the case of `O=S(=O)(N[C@@H]1CCc2nnnn2CC1)c1cnc2n1CCCC2` [ZINC001363999416] it was 104%. To `COCC(COC)N1CCN(S(=O)(=O)c2cnc(C)n2C)CC1` [ZINC000625246444] belongs 105%; to `CN(C(=O)c1c[nH]c(=O)cn1)C1CN(C(=O)c2n[nH]c3c2CCC3)C1` [ZINC000955144887], 96.9%; to `CN1CCC[C@@H]1C(=O)NC[C@H]1CCCN1c1ncnc2scnc12` [ZINC001061317651], 62.6%. Turning to `COc1ccccc1C[C@@](C)(CO)NCc1ccc2c(c1)ncn2C` [ZINC000631236280], the remaining activity at 1 µM was 92%.

Consider `CCn1ncc2c1CCC[C@@H]2N[C@@H](C)Cc1ccccn1` [ZINC000925887162], for which the remaining activity at 1 µM was 27.4%. As to `O=C1[C@H](N2C[C@@H]3CCC[C@H]3C2)CCN1c1ccccc1Cl` [ZINC000247015101], the remaining activity at 1 µM amounted to 73%. For `OC1(CN2CC(Cc3ccccc3C(F)(F)F)C2)CCC1` [ZINC001320149247], the remaining activity at 1 µM stood at 14.7%. With `O=C(CN1CC[C@]2(CCOC2)C1)N[C@@H](Cc1ccccc1)c1ccccc1` [ZINC000153400973], the remaining activity at 1 µM came to 99.4%. In the case of `O[C@@H]1CC[C@@H]2CN(Cc3cccc4c[nH]nc34)C[C@@H]21` [ZINC000582751592] it was 72.4%; in that of `C(=C\c1ccccc1)/CNc1ccc2c(n1)CCC2` [ZINC001156463732], 32.6%. In the case of `Cc1cc(CN2CC[C@H]2Cc2ccccc2)ccc1-n1cncn1` [ZINC000353995714] it was 13.2%. In the case of `Cc1ccc(C2=NO[C@@H](CNC(=O)N3CC[C@H](N4CCCC4)C3)C2)cc1C` [ZINC000802379169], the remaining activity at 1 µM is 89.7%.

As to `CC(C)(CO)N1CCN(c2nc3c(Br)cccc3s2)CC1` [ZINC000621267824], the remaining activity at 1 µM amounted to 33.4%. In the case of `c1ccc(-n2cncn2)c(CN2CCC[C@H](N3CCCC3)CC2)c1` [ZINC000678272880] it was 55.7%. For the compound `O=C(CN1CC2CC1(c1ccccc1)C2)NC[C@@H]1CCCO1` [ZINC000662335416], the remaining activity at 1 µM stood at 122%. On to `C[C@H]1CCC[C@H](NC(=O)C(=O)N2CCC(N3CCN(C)CC3)CC2)CC1` [ZINC000875242850], for which the remaining activity at 1 µM turned out to be 76.2%. For `O=C([C@H]1Cc2ccccc21)N1CC[C@H](NCc2ccncc2Cl)C1` [ZINC001019309159], the remaining activity at 1 µM turned out to be 99.6%.

With `Cc1nc(CN[C@H]2C[C@H](NC(=O)Cn3ncn(C)c3=O)C2)cs1` [ZINC001020327691], the remaining activity at 1 µM was determined as 102%. With `C[C@H]1CCCN1CC(=O)N(C)[C@H]1CCN(C(=O)CC(C)(C)O)C1` [ZINC000937267298], the remaining activity at 1 µM was found to be 111%.

With `O=C(Nc1cnn(CC2CC2)c1)C(=O)N1CCC[C@H]([C@@H]2CCNC2)C1` [ZINC000667676804], the remaining activity at 1 µM came out at 94.4%. Take `c1cncc(-c2nc(N3CCC[C@H](N4CCCC4)C3)c3ccccc3n2)c1` [ZINC000076836015]: the remaining activity at 1 µM amounted to 60.5%. Regarding `CN1CC[C@](O)(CNC(=O)c2ccc([N+](=O)[O-])c3cccnc23)C1` [ZINC000358062278], the remaining activity at 1 µM stood at 102%. `C[C@@H]1CN(C2CC2)C[C@H]1NC(=O)N(Cc1cccc(Br)c1)C1CC1` [ZINC000466933503]: the remaining activity at 1 µM is 84.3%. Take `Cc1c(F)cccc1C(=O)N[C@@H]1CN(CCC2CCCCC2)C[C@H]1O` [ZINC001077034834]: the remaining activity at 1 µM came out at 16.5%.

For `OC[C@@H](CNC[C@H](O)c1ccc(F)c(Br)c1)CC1CCCC1` [ZINC000843092160], the remaining activity at 1 µM was determined as 16.2%. As to `CN(C[C@@H](O)CN(C)c1ncc(F)cn1)C(=O)CCc1cnn[nH]1` [ZINC001125309519], the remaining activity at 1 µM was found to be 88%.

`CCN(CC)[C@H]1CCN(C(=O)NCCCc2cccc(Cl)c2)C1` [ZINC000465804078]: the remaining activity at 1 µM was 67.7%. For `COc1cc(NC(=O)CC2(N)CC2)cc(OC)c1Br` [ZINC000662800454], the remaining activity at 1 µM came out at 106%. On to `COc1cccc2c1OC[C@H](NC(=O)C(=O)N[C@@H]1CC(=O)N(C)C1)C2` [ZINC001341791776], for which the remaining activity at 1 µM stood at 222%. As to `Fc1cc(Br)cnc1N1CCN(CCc2cccs2)CC1` [ZINC000681377109], the remaining activity at 1 µM came out at 114%. To `O=C(N[C@H]1CCN(c2cc(Cl)c(O)nn2)C1)c1c[nH]c(=O)cn1` [ZINC001058532763] belongs 95.3%; to `Cc1cc(N(C)C)ccc1CNC(=O)C(=O)NC[C@@H]1COCCN1` [ZINC000861751799], 106%. As for `CN1CC[C@H]2CCN(C(=O)C(=O)Nc3cnc4c(c3)COCC4)[C@@H]2C1` [ZINC000679371269], the remaining activity at 1 µM came to 114%. Regarding `COC[C@@H](O)CN1CC[C@H](NC(=O)c2c(C)c(C)nn(C)c2=O)C1` [ZINC001365986475], the remaining activity at 1 µM came out at 109%. As for `CNC(=O)[C@@H](C)N1CCC2(CN(C(=O)c3c[nH]c4nccc-4c3)C2)C1` [ZINC001072835483], the remaining activity at 1 µM came out at 81.8%. To `C[C@@H](C(=O)NCc1ccc(Cl)cc1)N1CCC(C(C)(C)C)CC1` [ZINC001169307444] belongs 21.2%. For the compound `Cc1cc(C)c(/C=C\CN2CCC[C@@H](O)C2)cc1C` [ZINC001474404955], the remaining activity at 1 µM is 62.3%.

Turning to `CN(C)S(=O)(=O)N(C)CC(=O)N[C@@H]1COc2cc(F)ccc2C1` [ZINC000618647685], the remaining activity at 1 µM is 91.7%. To `O=C(NCC1(O)CN(C(=O)CCn2ccnc2)C1)[C@H]1CC=CCC1` [ZINC001041431730] belongs 98.6%; to `O=C(CN1CCC[C@@H]1[C@@H]1CCC[C@H]1O)N1CCOC[C@H]1C1CC1` [ZINC000649929688], 96.5%. On to `CC(C)N1C[C@H](NC(=O)c2ccn(Cc3ccccc3)c2)[C@@H](C)C1` [ZINC000359009035], for which the remaining activity at 1 µM came to 99.8%. To `CC(C)(C)N1CCC(NC(=O)c2ncccc2Br)CC1` [ZINC000194878845] belongs 109%. In the case of `C[C@@H]1CCN(CC(=O)N[C@H]2C[C@H](NC(=O)c3cnnc(O)c3)C2)C1` [ZINC000973375109] it was 111%; in that of `O[C@@H](CN[C@@H](c1ccc(Br)cc1Cl)C1CC1)CN1CCCC1` [ZINC000446751851], 20.8%.

Consider `COc1ccccc1O[C@H](C)CN[C@@H](C)c1ccccc1OC` [ZINC000129576345], for which the remaining activity at 1 µM came to 14.2%.

Consider `COCCn1cc(C(=O)N2C[C@@H](C)[C@@H](NCc3ccccn3)C2)nn1` [ZINC001054647418], for which the remaining activity at 1 µM was 104%. On to `O=C(C[C@]1(O)CCCNC1)Nc1cn2cc(Br)ncc2n1` [ZINC001515357045], for which the remaining activity at 1 µM amounted to 104%. On to `CC[C@@H](CN1CCCC1)NC(=O)C(=O)NC1COC(C)(C)OC1` [ZINC000806327364], for which the remaining activity at 1 µM was determined as 106%.

For the compound `C=CCC1(O)CCN([C@H](C)C(=O)N[C@@H](C)c2ccc(Cl)cc2)CC1` [ZINC000886762228], the remaining activity at 1 µM came to 110%. In the case of `C[C@H]1C[C@H](N2CCCC2)CN1CC(=O)N(Cc1ccccc1)c1ccccc1` [ZINC000512182007] it was 31.6%; in that of `CC(C)Sc1c(Cl)cccc1NC(=O)C(=O)N(C)C[C@H]1CCCN1C` [ZINC000421295130], 77.9%.

Turning to `COC(=O)[C@@H]1CCN([C@H](C)C(=O)NCc2ccccc2C)[C@@H]1C` [ZINC000347007006], the remaining activity at 1 µM came out at 108%. Regarding `Cc1nc[nH]c1C(=O)N1CC(O)(CNC(=O)CN2CC[C@H](C)C2)C1` [ZINC001046685471], the remaining activity at 1 µM stood at 101%. Consider `CC[C@@H](C)N1CCN(c2nc(N)nc(C(F)(F)C(F)(F)F)n2)CC1` [ZINC000894101819], for which the remaining activity at 1 µM is 35%.

(Values after publication doi:10.1101/2021.04.29.441652v1 (biorxiv, 2021).)
